Data reported in PMC9030254, “Target Hopping from Protein Kinases to PXR: Identification of Small-Molecule Protein Kinase Inhibitors as Selective Modulators of Pregnane X Receptor from TüKIC Library” (Cells, 2022).

Columns and labels:
Assay in all cases: Kinase profiling
Format in all cases: biochemical
RIPK5 = target: T1, RIPK5 (Homo sapiens, UniProt Q6XUX3)
T1 construct: purchased ProQinase (Freiburg, Germany)
T1 sequence (Q6XUX3 1-929): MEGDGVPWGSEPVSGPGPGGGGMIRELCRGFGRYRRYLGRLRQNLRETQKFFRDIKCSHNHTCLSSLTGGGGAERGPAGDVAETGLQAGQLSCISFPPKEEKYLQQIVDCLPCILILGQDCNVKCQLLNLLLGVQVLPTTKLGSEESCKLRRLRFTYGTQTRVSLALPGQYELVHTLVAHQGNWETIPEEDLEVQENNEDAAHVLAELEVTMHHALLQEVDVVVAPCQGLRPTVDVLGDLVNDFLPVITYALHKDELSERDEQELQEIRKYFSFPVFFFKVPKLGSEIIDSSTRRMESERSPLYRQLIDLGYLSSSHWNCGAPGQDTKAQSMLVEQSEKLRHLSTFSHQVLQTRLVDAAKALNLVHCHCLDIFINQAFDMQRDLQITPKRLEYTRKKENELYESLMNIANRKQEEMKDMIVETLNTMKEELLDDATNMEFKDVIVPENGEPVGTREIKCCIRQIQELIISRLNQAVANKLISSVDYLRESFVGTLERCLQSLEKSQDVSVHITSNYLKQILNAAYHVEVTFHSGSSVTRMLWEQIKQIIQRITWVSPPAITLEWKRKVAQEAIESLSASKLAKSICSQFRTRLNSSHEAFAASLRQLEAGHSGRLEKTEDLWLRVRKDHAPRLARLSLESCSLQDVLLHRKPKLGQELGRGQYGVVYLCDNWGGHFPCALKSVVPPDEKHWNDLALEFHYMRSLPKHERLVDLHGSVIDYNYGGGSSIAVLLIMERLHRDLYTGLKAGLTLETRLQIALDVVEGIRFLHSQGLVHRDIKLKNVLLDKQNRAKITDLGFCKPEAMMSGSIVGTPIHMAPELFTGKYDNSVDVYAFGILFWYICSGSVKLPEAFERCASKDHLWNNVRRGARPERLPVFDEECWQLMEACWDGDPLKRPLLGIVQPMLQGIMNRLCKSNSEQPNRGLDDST
Procedure: (§1) The analysis was performed by ProQinase (Freiburg, Germany).

BMX = target: T2, BMX (Homo sapiens, UniProt P51813)
T2 construct: purchased ProQinase (Freiburg, Germany)
T2 sequence (P51813 1-675): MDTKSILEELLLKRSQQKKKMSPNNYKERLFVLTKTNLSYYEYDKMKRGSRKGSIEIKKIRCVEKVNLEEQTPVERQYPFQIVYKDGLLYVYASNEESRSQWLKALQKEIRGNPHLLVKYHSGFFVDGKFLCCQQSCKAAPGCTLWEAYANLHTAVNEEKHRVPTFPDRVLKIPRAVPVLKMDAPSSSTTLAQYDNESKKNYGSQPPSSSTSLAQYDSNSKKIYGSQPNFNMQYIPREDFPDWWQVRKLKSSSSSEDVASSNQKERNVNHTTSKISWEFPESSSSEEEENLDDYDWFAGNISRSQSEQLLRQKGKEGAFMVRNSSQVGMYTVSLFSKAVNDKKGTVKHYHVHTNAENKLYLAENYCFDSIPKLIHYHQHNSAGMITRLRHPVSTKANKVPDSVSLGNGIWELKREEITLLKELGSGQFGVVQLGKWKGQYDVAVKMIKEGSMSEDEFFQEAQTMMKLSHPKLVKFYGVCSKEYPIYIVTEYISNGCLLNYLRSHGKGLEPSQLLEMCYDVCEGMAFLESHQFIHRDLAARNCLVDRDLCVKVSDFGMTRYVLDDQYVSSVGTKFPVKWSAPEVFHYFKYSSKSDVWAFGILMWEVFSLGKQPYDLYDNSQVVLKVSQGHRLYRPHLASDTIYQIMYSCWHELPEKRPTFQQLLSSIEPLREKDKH
Procedure: as §1

DYRK4 = target: T3, DYRK4 (Homo sapiens, UniProt Q9NR20)
T3 construct: purchased ProQinase (Freiburg, Germany)
T3 sequence (Q9NR20 1-520): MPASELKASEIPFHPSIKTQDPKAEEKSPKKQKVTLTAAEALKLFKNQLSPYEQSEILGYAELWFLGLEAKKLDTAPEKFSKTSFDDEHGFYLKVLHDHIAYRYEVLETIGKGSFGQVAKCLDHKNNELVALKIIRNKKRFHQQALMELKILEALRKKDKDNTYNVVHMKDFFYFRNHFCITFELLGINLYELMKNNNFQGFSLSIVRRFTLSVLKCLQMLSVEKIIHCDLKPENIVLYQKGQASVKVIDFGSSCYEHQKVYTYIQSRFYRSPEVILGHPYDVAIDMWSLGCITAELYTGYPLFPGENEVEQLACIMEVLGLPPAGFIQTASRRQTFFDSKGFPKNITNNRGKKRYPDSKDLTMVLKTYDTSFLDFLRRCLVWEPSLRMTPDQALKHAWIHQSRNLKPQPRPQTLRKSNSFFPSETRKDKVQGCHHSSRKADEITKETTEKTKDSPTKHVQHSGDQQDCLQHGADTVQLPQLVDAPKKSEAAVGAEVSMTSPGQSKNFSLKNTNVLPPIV
Procedure: as §1

ACVRL1 = target: T4, ACVRL1 (Homo sapiens, UniProt P37023)
T4 construct: purchased ProQinase (Freiburg, Germany)
Procedure: as §1

T4 sequence (P37023 22-503): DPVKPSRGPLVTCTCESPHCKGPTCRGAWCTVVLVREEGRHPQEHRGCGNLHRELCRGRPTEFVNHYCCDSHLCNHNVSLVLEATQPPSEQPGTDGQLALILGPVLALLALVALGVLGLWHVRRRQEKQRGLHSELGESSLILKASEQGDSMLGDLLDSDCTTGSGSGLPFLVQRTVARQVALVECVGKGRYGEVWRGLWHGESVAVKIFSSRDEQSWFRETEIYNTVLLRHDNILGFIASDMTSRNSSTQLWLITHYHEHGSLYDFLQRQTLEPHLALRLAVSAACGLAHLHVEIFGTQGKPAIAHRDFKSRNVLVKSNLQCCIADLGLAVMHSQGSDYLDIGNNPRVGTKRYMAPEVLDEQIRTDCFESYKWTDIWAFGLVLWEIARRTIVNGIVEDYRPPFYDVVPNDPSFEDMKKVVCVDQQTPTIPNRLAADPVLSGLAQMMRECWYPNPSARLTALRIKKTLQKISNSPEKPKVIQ

O=C(Cc1ccccc1)Nc1ccc(F)c(Nc2ccc3c(c2)CCCCC3=O)c1 [Compound 100]
Residual activity (RIPK5; 1.0E-05 M): 99 % of control
Residual activity (RIPK5; 1.0E-06 M): 100 % of control
Residual activity (BMX; 1.0E-05 M): 71 % of control
Residual activity (BMX; 1.0E-06 M): 111 % of control
Residual activity (DYRK4; 1.0E-05 M): 94 % of control
Residual activity (DYRK4; 1.0E-06 M): 98 % of control
Residual activity (ACVRL1; 1.0E-05 M): 100 % of control
Residual activity (ACVRL1; 1.0E-06 M): 106 % of control

O=C(Nc1ccc(F)c(Nc2ccc3c(c2)CCCCC3=O)c1)c1cccc(F)c1 [Compound 109]
Residual activity (RIPK5; 1.0E-05 M): 100 % of control
Residual activity (RIPK5; 1.0E-06 M): 101 % of control
Residual activity (BMX; 1.0E-05 M): 83 % of control
Residual activity (BMX; 1.0E-06 M): 100 % of control
Residual activity (DYRK4; 1.0E-05 M): 87 % of control
Residual activity (DYRK4; 1.0E-06 M): 89 % of control
Residual activity (ACVRL1; 1.0E-05 M): 109 % of control
Residual activity (ACVRL1; 1.0E-06 M): 94 % of control
